Measured values as given in US4021479A, “Derivatives of 4-(4-biphenylyl)-butyric acid” (Boehringer Ingelheim GmbH, priority 1971, dated 1977).
Where a name gives a salt, the structure may show the parent alone.

Columns and labels:
Format in all cases: in vivo
[1] = tested on: adult laboratory rats; assay: acute toxicity (LD50) in adult laboratory rats; conditions: p.o., rats, printed in parentheses under the LD50 bound; observation period of 14 days
Protocol: (§1) The acute toxicities of the compounds (LD50) were determined in adult laboratory rats from the percentage of animals which died after administration of varying doses within an observation period of 14 days [see J. Pharmacol. exper. Therap. 96, 99 1949)].

[2] = acute toxicity (LD50) in adult laboratory rats; conditions: rat, in vivo, po, adult rats, observation period of 14 days
Protocol: as §1

[3] = tested on: kaolin-induced edema in the hind paw of rats; assay: antiexudative action against the kaolin-induced edema in the hind paw of rats (Hillebrecht); conditions: Rattus norvegicus, po, dose which produces a 35% reduction in the edematous swelling
Protocol: The antiphlogistic activity of the compounds of the present invention was ascertained by the standard test method Hillebrecht described in Arzneimittelforschung 4, 607-614 (1954), i.e. in terms of the antiexudative action against the kaolin-induced edema in the hind paw of rats. The measurements were carried out by the method of Doepfner and Cerletti, Int. Arch. Allergy and Appl. Immunology 12, 89-97 (1958). The data thus obtained were plotted on a dose-activity graph, and from the resulting curve the dose which produces a 35% reduction in the edematons swelling (ED35) was graphically calculated for each compound.

SMILES | animals died [1] | LD50 at 336 h [2] [mg/kg] | ED35 [3] [mg/kg]
O=C(O)CCC(O)c1ccc(-c2ccccc2[N+](=O)[O-])cc1 (centres unmarked) [A, cyclohexylamine salt of 4-(2'-nitro-4-biphenylyl)-4-hydroxy-butyric acid] | 0 out of 5 | > 500 | 30
Nc1ccccc1-c1ccc(C(O)CCC(=O)O)cc1 (centres unmarked) [B, cyclohexylamine salt of 4-(2'-amino-4-biphenylyl)-4-hydroxy-butyric acid] | – | 1340 | 66
O=C(O)CCCc1ccc(-c2ccccc2[N+](=O)[O-])cc1 [C, cyclohexylamine salt of 4-(2'-nitro-4-biphenylyl)-butyric acid] | 3 out of 10 | > 1000 | 66
O=C(O)CCC(O)c1ccc(-c2ccccc2Cl)cc1 (centres unmarked) [Compound E, cyclohexylamine salt of 4-(2'-chloro-4-biphenylyl)-4-hydroxy-butyric acid] | 1 out of 10 | > 1000 | 27
O=C(O)CCCc1ccc(-c2ccccc2F)cc1 [D, cyclohexylamine salt of 4-(2'-fluoro-4-biphenylyl)-butyric acid] | 0 out of 10 | > 500 | 37
O=C(O)CCCc1ccc(-c2ccccc2Cl)cc1 [F, cyclohexylamine salt of 4-(2'-chloro-4-biphenylyl)-butyric acid] | 2 out of 10 | > 1000 | 50
O=C(O)CCCc1ccc(-c2ccc([N+](=O)[O-])cc2)cc1 [G, cyclohexylamine salt of 4-(4'-nitro-4-biphenylyl)-butyric acid] | 0 out of 10 | > 1000 | 30
